Measurements taken from patent US9376425B2, “Heterocyclic compounds as MDM2 inhibitors for the treatment of cancer” (AMGEN INC., priority 2011, dated 2016).

These compounds were tested against T1, human MDM2 (GST-hMDM2 1-188), interaction with biotinylated-p53 (1-83) (Homo sapiens, UniProt Q00987) (assay: improved HTRF assay (HTRF2 assay), inhibition of HDM2-p53 interaction). Settings: 0.2 nM GST-hMDM2, 0.5 nM biotinylated-p53, 100 mM KF.
T1 construct: Amino acid residues 1-188 of human MDM2 were expressed; made in house; host or cells: Escherichia coli
T1 sequence (Q00987 1-188): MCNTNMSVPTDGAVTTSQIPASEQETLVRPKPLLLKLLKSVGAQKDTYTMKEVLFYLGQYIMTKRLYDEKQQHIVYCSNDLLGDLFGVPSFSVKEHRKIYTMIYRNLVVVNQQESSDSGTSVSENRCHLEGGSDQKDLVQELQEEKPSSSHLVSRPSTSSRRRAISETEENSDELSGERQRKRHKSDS
Type: binding
Summary of the method: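 Time-resolved fluorescence (HTRF) read after >4 h equilibration with SA-XLent/anti-GST cryptate/KF detection reagents. Reaction: compound plus GST-hMDM2 for 20 min at room temperature, then E. coli-expressed biotinylated p53 residues 1-83 for 60 min, 2% DMSO final. Inhibition expressed versus nutlin-3.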

IC50 [nM]	SMILES
< 1	O=C(O)C[C@H]1O[C@H](c2cccc(Cl)c2)[C@@H](c2ccc(Cl)cc2)N([C@H](CS(=O)(=O)Nc2ccccc2F)C2CC2)C1=O (single isomer, unassigned) [Example 294, 2-((2R,5R,6R)-6-(3-Chlorophenyl)-5-(4-chlorophenyl)-4-((S)-1-cyclopropyl-2-(N-(2-fluorophenyl)sulfamoyl)ethyl)-3-oxomorpholin-2-yl)acetic acid or 2-((2S,5R,6R)-6-(3-chlorophenyl)-5-(4-chlorophenyl)-4-((S)-1-cyclopropyl-2-(N-(2-fluorophenyl)sulfamoyl)ethyl)-3-oxomorpholin-2-yl)acetic acid]
2	O=C(O)C[C@H]1O[C@H](c2cccc(Cl)c2)[C@@H](c2ccc(Cl)cc2)N([C@H](CS(=O)(=O)Nc2ccccc2F)C2CC2)C1=O (single isomer, unassigned) [Example 295, 2-((2R,5R,6R)-6-(3-Chlorophenyl)-5-(4-chlorophenyl)-4-((S)-1-cyclopropyl-2-(N-(2-fluorophenyl)sulfamoyl)ethyl)-3-oxomorpholin-2-yl)acetic acid or 2-((2S,5R,6R)-6-(3-chlorophenyl)-5-(4-chlorophenyl)-4-((S)-1-cyclopropyl-2-(N-(2-fluorophenyl)sulfamoyl)ethyl)-3-oxomorpholin-2-yl)acetic acid]
< 1	C[C@H]1CCCN1S(=O)(=O)C[C@H](C1CC1)N1C(=O)[C@@H](CC(=O)O)O[C@H](c2cccc(Cl)c2)[C@H]1c1ccc(Cl)cc1 (single isomer, unassigned) [Example 296, 2-((2R,5R,6R)-6-(3-Chlorophenyl)-5-(4-chlorophenyl)-4-((S)-1-cyclopropyl-2-(((S)-2-methylpyrrolidin-1-yl)sulfonyl)ethyl)-3-oxomorpholin-2-yl)acetic acid or 2-((2S,5R,6R)-6-(3-chlorophenyl)-5-(4-chlorophenyl)-4-((S)-1-cyclopropyl-2-(((S)-2-methylpyrrolidin-1-yl)sulfonyl)ethyl)-3-oxomorpholin-2-yl)acetic acid]
< 1	C[C@H]1CCCN1S(=O)(=O)C[C@H](C1CC1)N1C(=O)[C@@H](CC(=O)O)O[C@H](c2cccc(Cl)c2)[C@H]1c1ccc(Cl)cc1 (single isomer, unassigned) [Example 297, 2-((2R,5R,6R)-6-(3-Chlorophenyl)-5-(4-chlorophenyl)-4-((S)-1-cyclopropyl-2-(((S)-2-methylpyrrolidin-1-yl)sulfonyl)ethyl)-3-oxomorpholin-2-yl)acetic acid or 2-((2S,5R,6R)-6-(3-chlorophenyl)-5-(4-chlorophenyl)-4-((S)-1-cyclopropyl-2-(((S)-2-methylpyrrolidin-1-yl)sulfonyl)ethyl)-3-oxomorpholin-2-yl)acetic acid]
26	O=C(O)C[C@H]1O[C@H](c2cccc(Cl)c2)[C@@H](c2ccc(Cl)cc2)N([C@H](CS(=O)(=O)N2CCc3cc(F)ccc32)C2CC2)C1=O (single isomer, unassigned) [Example 298, 2-((2R,5R,6R)-6-(3-Chlorophenyl)-5-(4-chlorophenyl)-4-((S)-1-cyclopropyl-2-((5-fluoroindolin-1-yl)sulfonyl)ethyl)-3-oxomorpholin-2-yl)acetic acid or 2-((2S,5R,6R)-6-(3-chlorophenyl)-5-(4-chlorophenyl)-4-((S)-1-cyclopropyl-2-((5-fluoroindolin-1-yl)sulfonyl)ethyl)-3-oxomorpholin-2-yl)acetic acid]
11	O=C(O)C[C@H]1O[C@H](c2cccc(Cl)c2)[C@@H](c2ccc(Cl)cc2)N([C@H](CS(=O)(=O)N2CCc3cc(F)ccc32)C2CC2)C1=O (single isomer, unassigned) [Example 299, 2-((2R,5R,6R)-6-(3-Chlorophenyl)-5-(4-chlorophenyl)-4-((S)-1-cyclopropyl-2-((5-fluoroindolin-1-yl)sulfonyl)ethyl)-3-oxomorpholin-2-yl)acetic acid or 2-((2S,5R,6R)-6-(3-chlorophenyl)-5-(4-chlorophenyl)-4-((S)-1-cyclopropyl-2-((5-fluoroindolin-1-yl)sulfonyl)ethyl)-3-oxomorpholin-2-yl)acetic acid]
< 1	CN(C(C)(C)C)S(=O)(=O)C[C@H](C1CC1)N1C(=O)[C@@H](CC(=O)O)O[C@H](c2cccc(Cl)c2)[C@H]1c1ccc(Cl)cc1 (single isomer, unassigned) [Example 300, 2-((2R,5R,6R)-4-((S)-2-(N-(tert-Butyl)-N-methylsulfamoyl)-1-cyclopropylethyl)-6-(3-chlorophenyl)-5-(4-chlorophenyl)-3-oxomorpholin-2-yl)acetic acid or 2-((2S,5R,6R)-4-((S)-2-(N-(tert-butyl)-N-methylsulfamoyl)-1-cyclopropylethyl)-6-(3-chlorophenyl)-5-(4-chlorophenyl)-3-oxomorpholin-2-yl)acetic acid]
< 1	CN(C(C)(C)C)S(=O)(=O)C[C@H](C1CC1)N1C(=O)[C@@H](CC(=O)O)O[C@H](c2cccc(Cl)c2)[C@H]1c1ccc(Cl)cc1 (single isomer, unassigned) [Example 301, 2-((2R,5R,6R)-4-((S)-2-(N-(tert-Butyl)-N-methylsulfamoyl)-1-cyclopropylethyl)-6-(3-chlorophenyl)-5-(4-chlorophenyl)-3-oxomorpholin-2-yl)acetic acid or 2-((2S,5R,6R)-4-((S)-2-(N-(tert-butyl)-N-methylsulfamoyl)-1-cyclopropylethyl)-6-(3-chlorophenyl)-5-(4-chlorophenyl)-3-oxomorpholin-2-yl)acetic acid]
< 1	O=C(O)C[C@H]1O[C@H](c2cccc(Cl)c2)[C@@H](c2ccc(Cl)cc2)N([C@H](CS(=O)(=O)N2CCOCC2)C2CC2)C1=O (single isomer, unassigned) [Example 302, 2-((2R,5R,6R)-6-(3-Chlorophenyl)-5-(4-chlorophenyl)-4-((S)-1-cyclopropyl-2-(morpholinosulfonyl)ethyl)-3-oxomorpholin-2-yl)acetic acid or 2-((2S,5R,6R)-6-(3-chlorophenyl)-5-(4-chlorophenyl)-4-((S)-1-cyclopropyl-2-(morpholinosulfonyl)ethyl)-3-oxomorpholin-2-yl)acetic acid]
1	O=C(O)C[C@H]1O[C@H](c2cccc(Cl)c2)[C@@H](c2ccc(Cl)cc2)N([C@H](CS(=O)(=O)N2CCOCC2)C2CC2)C1=O (single isomer, unassigned) [Example 303, 2-((2R,5R,6R)-6-(3-Chlorophenyl)-5-(4-chlorophenyl)-4-((S)-1-cyclopropyl-2-(morpholinosulfonyl)ethyl)-3-oxomorpholin-2-yl)acetic acid or 2-((2S,5R,6R)-6-(3-chlorophenyl)-5-(4-chlorophenyl)-4-((S)-1-cyclopropyl-2-(morpholinosulfonyl)ethyl)-3-oxomorpholin-2-yl)acetic acid]

SMILES	IC50 [nM]
CC(C)(C#N)S(=O)(=O)C[C@H](C1CC1)N1C(=O)[C@@H](CC(=O)O)O[C@H](c2cccc(Cl)c2)[C@H]1c1ccc(Cl)cc1 (single isomer, unassigned) [Example 290, 2-((2R,5R,6R)-6-(3-Chlorophenyl)-5-(4-chlorophenyl)-4-((S)-2-((2-cyanopropan-2-yl)sulfonyl)-1-cyclopropylethyl)-3-oxomorpholin-2-yl)acetic acid or 2-((2S,5R,6R)-6-(3-chlorophenyl)-5-(4-chlorophenyl)-4-((S)-2-((2-cyanopropan-2-yl)sulfonyl)-1-cyclopropylethyl)-3-oxomorpholin-2-yl)acetic acid]	< 1
CC(C)(C#N)S(=O)(=O)C[C@H](C1CC1)N1C(=O)[C@@H](CC(=O)O)O[C@H](c2cccc(Cl)c2)[C@H]1c1ccc(Cl)cc1 (single isomer, unassigned) [Example 291, 2-((2R,5R,6R)-6-(3-Chlorophenyl)-5-(4-chlorophenyl)-4-((S)-2-((2-cyanopropan-2-yl)sulfonyl)-1-cyclopropylethyl)-3-oxomorpholin-2-yl)acetic acid or 2-((2S,5R,6R)-6-(3-chlorophenyl)-5-(4-chlorophenyl)-4-((S)-2-((2-cyanopropan-2-yl)sulfonyl)-1-cyclopropylethyl)-3-oxomorpholin-2-yl)acetic acid]	< 1
CC(C)(C)NS(=O)(=O)C[C@H](C1CC1)N1C(=O)[C@@H](CC(=O)O)O[C@H](c2cccc(Cl)c2)[C@H]1c1ccc(Cl)cc1 (single isomer, unassigned) [Example 292, 2-((2R,5R,6R)-4-((S)-2-(N-(tert-Butyl)sulfamoyl)-1-cyclopropylethyl)-6-(3-chlorophenyl)-5-(4-chlorophenyl)-3-oxomorpholin-2-yl)acetic acid or 2-((2S,5R,6R)-4-((S)-2-(N-(tert-butyl)sulfamoyl)-1-cyclopropylethyl)-6-(3-chlorophenyl)-5-(4-chlorophenyl)-3-oxomorpholin-2-yl)acetic acid]	< 1
CC(C)(C)NS(=O)(=O)C[C@H](C1CC1)N1C(=O)[C@@H](CC(=O)O)O[C@H](c2cccc(Cl)c2)[C@H]1c1ccc(Cl)cc1 (single isomer, unassigned) [Example 293, 2-((2R,5R,6R)-4-((S)-2-(N-(tert-Butyl)sulfamoyl)-1-cyclopropylethyl)-6-(3-chlorophenyl)-5-(4-chlorophenyl)-3-oxomorpholin-2-yl)acetic acid or 2-((2S,5R,6R)-4-((S)-2-(N-(tert-butyl)sulfamoyl)-1-cyclopropylethyl)-6-(3-chlorophenyl)-5-(4-chlorophenyl)-3-oxomorpholin-2-yl)acetic acid]	1
